Measured values reported in patent US6680307B1, “Use of ibandronate for promoting osseointegration of endoprostheses” (Roche Diagnostics GmbH, priority 1998, dated 2004).

Assays:
[1] = tested on: bone-tooth implant; settings: treatment for 4 weeks (1 week before the operation and 3 weeks after); cited from earlier work
[2] = tested on: periprosthetic bone loss; settings: treatment with higher doses; cited from earlier work
[3] = tested on: titanium implants and hydroxyl apatite-coated implants in the bone of 6 month-old Sprague Dawley rats; assay: Time sequence of osseointegration of implants in rat femur (Example 1, histomorphometry); assay type: in vivo
Procedure: (§1) 6-month old female Spregue-Dawley rats were kept in cages and subjected to a 12-hour day and night rhythm. They had free access to food and water. The animals were kept and fed in accordance with legal regulations and the research was carried out with the approval and under the supervision of the Darmstadt Governmental Presidium.
(§2) The animals were divided at random among the various test groups. They were anaethesized by intraperitoneal administration of ketamine (75 mg/kg) and xylazine (5 mg/kg). Both back legs were sharped and disinfected with Betaisadonna solution. Medioparapatellar arthrotomy of the knee joint was carried out under aseptic conditions and the patella was laterally dislocated. The medullary canal was opened distally in the intercondylar notch and the canal was drilled with a 1.0 mm diameter Kirchner wire down to the proximal metaphysis of the femur. A titanium Kirchner wire was then inserted into the right femur and a hydroxyl apatite-coated Kirchner wire into the left femur as far as the proximal metaphysis. The access hole was closed with bone wax, the patella was replaced, the extensor apparatus of the refined leg was reconstructed, the soft tissue was adapted and the skin was closed by an intracutaneous seam. The back legs were then tested for normal post-operative movement. The animals were at liberty to move freely in their cages and the activity and the load on the hind legs was checked daily.
(§3) Ibandronate or 0.9% NaCl was administered daily as per Examples 1 and 2. After the preset treatment time the animals were euthanased in a carbon dioxide chamber and directly afterwards the two femurs were taken out, completely freed from soft tissue and fixed in alcohol for subsequent histerlogical treatment. […] Particular attention was given to the areas where a change in the bone occurred such as an increase or decrease in trabecular bone, a change in bone density, loosening seams on the implant, periostal or endostal changes. Evaluation in this case was purely descriptive.
(§4) Description of production of preparations by the cut microsection technique for producing histological sections of conventional non-cuttable tissue after Prof. Donath. (K. Donath, G. Breuner: A method for the study of undecalcified bones and teeth with attached soft tissue. The Saege-Schliff (sawing and grinding) technique., J. Oral Pathology 1982, 11:318-26). […]
(§5) Histological investigation of bones under the optical microscope gives knowledge about the overall structure and the distribution of bone components. […] Quantitative evaluation of the results was by histomorphometry.
(§6) The bone-covered area on the metal implant was shown and calculated by histomorphometry, using special software. […]

[4] = tested on: titanium implants and hydroxyl apatite-coated implants in the bone of 6-month old rats; assay: Osseointegration of implants in rat femur at a defined time, daily versus bolus administration (Example 2); assay type: in vivo
Procedure: as §1, §2, §3, §4, §5, §6

O=P(O)(O)C(Cl)(Cl)P(=O)(O)O [Clodronate]
Osteogenesis (bone formation) compared with untreated patients [1]: more intensive

NCCCC(O)(P(=O)(O)O)P(=O)(O)O [alendronate]
Bone resorption [2]: considerably slowed down

CCCCCN(C)CCC(O)(P(=O)(O)O)P(=O)(O)O [ibandronate, 1-hydroxy-3-(N-methyl-N-pentyl)aminopropyl-1,1-diphosphonic acid]
Temporal advantage after treatment versus untreated group ([3]; 25 μg FAE/kg/d daily s.c.): more than 50%
Time to complete integration of the implant ([3]; 25 μg FAE/kg/d daily s.c., untreated group nearly complete ingrowth after 37 days): 18 days
Time to complete integration ([3]; daily dose of 20 to 30 μg/kg body weight (i.v. equivalent)): 15 to 20 days
Osseointegration compared with the untreated group ([3]; daily subcutaneous ibandronate after implantation, rats): appreciably improved
Increase in osseointegration compared with the control group ([4]; 2a: s.c. 25 μg FAE/kg/d for 15-20 days): 50%
Increase in osseointegration compared with the control group ([4]; 2b: s.c. bolus administration, 25 μg FAE/kg/d): 50%
Difference in osseointegration between bolus-treated groups and control group ([4]; 2b: s.c. bolus administration, total dose of 1, 5 and 25 μg FAE/kg/d): Very significant differences
Difference in osseointegration between bolus administration and cumulative administration ([4]; 2c: bolus versus cumulative administration over the entire period): No significant differences
